# Where a name gives a salt, the structure may show the parent alone.
# Legend:
# Format in all cases: in vivo, rat
# [1] = Rate of biological utilization of SUN N4057 in rats
# Description: Note that the rate of biological utilization of SUN N4057 in the rats, with subcutaneous administration, was a good one of about 100%, but with intraperitoneal administration, was a low one of about 27%. Further, it became clear that this quickly was consumed peaking at 15 minutes after administration. For this reason, in intraperitoneal administration, a higher dosage was set than with subcutaneous administration.
# [2] = test system: Parkinson's disease model rats; assay: Levodopa-induced striatal dopamine release and rotational behavior, brain microdialysis in Parkinson's disease model rats; conditions: for rotational behavior of the rats: 3 and 10 mg/kg i.p.
# Description: For preparing Parkinson's disease model rats by unilateral nigrostriatal dopamine nerve destruction, Crl: CD (SD) male rats supplied by Charles River Japan (8 weeks old at start of test) were used. About 30 minutes before injection of 6-hydroxydopamine, the norepinephrine reuptake inhibitor desipramine (25 mg/kg) was intraperitoneally administered, then the rat head was fixed to a brain stereotaxic apparatus under anesthesia by intraperitoneal administration of pentobarbital (40 mg/kg). 6-hydroxydopamine (total amount 8 μg/4 μL) including ascorbic acid was dissolved in physiological saline, then was injected at two locations of the right medial forebrain bundle (at 1.8 mm posterior to the bregma, 2.0 mm right-lateral to the median line and 8.3 mm ventral to the surface of the skill and 4.5 mm to the rear from the bregma, 1.4 mm to the right from the midline, and a depth of 8.5 mm from the cranium) through a microinjection syringe at a flow rate of 1.0 μL/min over 4 minutes, then was allowed to stand for 5 minutes. To confirm the success of dopamine nerve destruction after about 3 weeks from the above surgery, the rotational behavior of the rats after subcutaneous administration of the dopamine receptor agonist apomorphine (0.05 mg/kg) was measured using a rotational behavior-measuring equipment (Rotameter 6ch System, Muromachi Kikai Co., Ltd.). Rats rotating over 100 times in the opposite direction to the injection in the one hour right after apomorphine administration were judged to have unilateral nigrastriatal dopamine nerve destruction and were used for the subsequent tests.
# Furthermore, from about one week later, the rats were given repeated intraperitoneal administration of levodopa (25 mg/kg)+peripheral dopa-decarboxylase inhibitor benserazide (10 mg/kg) (hereinafter referred to as “repeated doses of levodopa”) (twice a day, from Monday to Friday) for 6 weeks.
# For the brain microdialysis guide cannule insertion surgery, under anesthesia by pentobarbital (40 mg/kg intraperitoneal administration), the head of each rat was fixed on a brain stereotaxic apparatus, then a brain microdialysis guide cannule (Carnegie Medicin PC12 guide cannule) was inserted into the right striatum (0.5 mm in front of the bregma, 3.0 mm from the midline to the right, and 4.0 mm deep from the cranium) and dental cement was used to fix it to the rat skull. […] The obtained dialysate was immediately measured for dopamine concentration using a high performance liquid chromatography system with an electrochemical detector (LC-ECD). Further, every 30 minutes after levodopa administration, the number of rotations in 5 minutes to the side opposite to the 6-hydroxydopamine injection side was visually measured. […]
# [3] = test system: rats; assay: Forced swimming method (anti-depressive action)
# Source text: For the test, Crl: CD(SD) male rats supplied by Charles River Japan were used (6 weeks old at start of test). For the forced swimming test, the method of the improved type reported by Lucki et al. (Lucki I., “The forced swimming test as a model for core and component behavioral effects of antidepressant drugs”, Behavioural Pharmacology, 1997, 8, p. 523-532; Cryan J. F. et al., “Assessing antidepressant activity in rodents: recent developments and future needs”, TRENDS in Pharmacological Sciences, 2002, 23, p. 238-245) was used. On day 1, each rat was placed in a cylinder filled with water (height 45 cm×diameter 30 cm, water depth 30 cm, water temperature 23° C., water depth set to depth by which back legs and tail of rat will not touch the bottom). The rat was taken out after 15 minutes. At this time, the immobility period (seconds) of minutes 10-15 (5 minutes) was recorded. Based on the results, the rats were assigned to five groups so that there would be no difference among the groups. On day 2, each rat was placed in a cylinder filled with water the same as day 1 and the immobility period (seconds), swimming behavior period (seconds), and climbing behavior period (seconds) of minutes 0-5 (5 minutes) were measured. Note that the immobility period was defined as the minimum extent of movement for the rat to hold its head above the water, the swimming behavior as the swimming behavior circling around the inside of the cylinder in the horizontal direction, and the climbing behavior as the climbing behavior moving the forelimbs in the vertical direction along the cylinder walls to try to climb them. The tested substance was intraperitoneally administered 15 minutes after the end of swimming on day 1, and 4 hours and 30 minutes before swimming on day 2. Further, for the amount of locomotor activity, a measuring system (shape 48.8×48.8×30 cm, vertical 8 fractions, horizontal 8 fractions, for total of 64 fractions, Biomedica) set in a blacked out soundproof box was used to record the amount of locomotor activity of the rats at minutes 0-15 (15 minutes). Note that the dosages and timings of administration of the tested substances were set in the same way as the forced swimming test and the substance were intraperitoneally administered 24 hours, 4 hours, and 30 minutes before measurement of the amount of locomotor activity.
# [4] = test system: Parkinson's disease model rats; assay: Inhibition of induction of hyperkinesia of the forelimbs
# Description: By repeated doses of levodopa to Parkinson's disease model rats, hyperkinesia of the forelimbs (abnormal action similar to dyskinesia in clinical studies) was observed (see FIG. 3). Therefore, it was studied whether it is possible to inhibit the induction of hyperkinesia of the forelimbs by repeated dosage of the tested substance from the start along with the start of repeated doses of levodopa.
# The tested substance was intraperitoneally administered about 20 minutes before levodopa administration.
smiles,measurement,setting,value
"O=C1c2ccccc2OC=C(Cl)N1CCCCN1CC=C(c2ccccn2)CC1 [SUN N4057, 3-chloro-4,5-dihydro-4-{4-[4-(2-pyridyl)-1,2,3,6-tetrahydropyridin-1-yl]butyl}-1,4-benzoxazepin-5-one.dihydrochloride-dihydrate]",rate of biological utilization,[1]; intraperitoneal administration,about 27%
same,time of peak after administration,[1]; intraperitoneal administration,15 min
same,rate of biological utilization,[1]; subcutaneous administration,about 100%
same,increase of the amount of striatal dopamine release due to levodopa,"[2]; 3 and 10 mg/kg i.p. 20 minutes before levodopa 25 mg/kg, week 6 of repeated levodopa",inhibitory action
same,peak time of the amount of dopamine release,[2]; 3 and 10 mg/kg i.p. before levodopa,delayed
same,rotational behavior of the rats,[2]; 150 to 210 minutes after levodopa dosage,increase
same,rotational behavior of the rats,[2]; 30 minutes after levodopa administration,decreased
same,immobility period,"[3]; 0.3, 1 and 3 mg/kg i.p., minutes 0-5 on day 2",significant shortening of the immobility period
same,swimming behavior period,"[3]; 1, 3 mg/kg i.p.",significant increase
same,hyperkinesia of the forelimbs compared with the results after the 3 week withdrawal period,[4]; 3 mg/kg i.p. for 3 weeks,significant inhibitory effect
same,appearance of hyperkinesia of the forelimbs,[4]; 3 mg/kg i.p. for 3 weeks together with the start of repeated doses of levodopa,reduced
